Key:
[1] = system: NB-4 (a leukaemia cell line); assay: MTT cell viability assay, NB-4; assay type: cell-based; conditions: 72 hrs
Procedure: (§1) MDA-MB-453 (ATCC HTB-131) cells were grown in media with sodium pyruvate. MDA-MB-231 cells (ATCC HTB-26) were grown in DMEM media or L-15 supplemented with Glutamax (1×). U87-MG (ATCC HTB-14) and MDA-MB-468 (ATCC HTB-132) cells were cultured in DMEM supplemented with Glutamax (1×). NB-4 (DSMZ ACC-207) cells were cultured in RPMI 1640.
(§2) Breast cancer and glioblastoma cell lines were plated 4000 cells/well in 96-well plates in the presence of 10% FBS media. The following day cells were treated with various concentrations of the example compounds (0.1% DMSO final) and incubated for 72 hrs. After the incubation an MTT assay was performed to access cell viability. Percent of viability was determined using DMSO vehicle and no cell (blank) controls.

MDA-MB-231 xenografts = assay: MDA-MB-231 xenograft tumor growth in immunodeficient athymic nude mice; assay type: in vivo; conditions: for TGI: 12 doses; for final tumor volumes versus vehicle (waterfall plot): end of experiment (22 days OT-1000, 25 days OT-1129)
Procedure: Athymic nude mice were inoculated orthotopically with 5×10^6 MDA-MB-231 breast cancer cells into the mammary fat pad, and randomized for treatment when tumors reached an average volume of 80-120 mm^3 (N=12 in each group). […] Xenograft tumor volume was assessed using caliper measurements for 22 days. Athymic nude mouse model is described by Richmond A, and Su Y., Disease Models & Mechanisms. 2008; 1(2-3):78-82.
Athymic nude mice were inoculated orthotopically with 5×10^6 MDA-MB-231 breast cancer cells into the mammary fat pad, and randomized for treatment when tumors reached an average volume of 80-120 mm^3 (N=12 in each group). […] Xenograft tumor volume was assessed using caliper measurements for 25 days. MDA-MB-231 Xenograft Tumor Growth in Immunodeficient Athymic Nude Mice Treated with OT-1096 or Vehicle Control. Athymic nude mice were inoculated orthotopically with 5×10^6 MDA-MB-231 breast cancer cells into the mammary fat pad and randomized for treatment when tumors reached an average volume of 80-120 mm^3 (N=12 in each group). Mice were treated with 10 mg/kg OT-1096 via i.v. injection or with vehicle i.v., once a day using a 5 day on two day off (5/2) dosing regimen for the duration of the experiment. Xenograft tumor volume was assessed using caliper measurements for 25 days. Data is represented as mean tumor volume±SEM. Statistical significance (p<0.05) was determined using a Two-way repeated measures ANOVA with Sidak's multiple comparison test. […] Relative Luminescence Flux in Primary 4T1-Luc2 Immunocompetent Tumors Implanted into the Mammary Fat Pad of BALB/C Mice and Treated with OT-1096 or Vehicle Control. Female BALB/c immunocompetent mice were implanted with 1×10^5 4T1-luc2 murine tumor cells into the mammary fat pad. Upon growth of the tumors between 60-90 mm^3 the animals were selected for imaging. Mice were randomized and enrolled for treatment based on imaging flux values. Mice were treated once daily with 5 mg/kg of either OT-1096 or vehicle control using a 5/2 (five days on, two days off) dosing protocol. Upon days 1, 8, and 15 whole body imaging was performed on the mice to follow tumor cell luminescence. Analysis consists of primary tumor luminescence in mice. Each mouse was normalized to its own baseline luminescence from day 1. […] Data is represented as mean±SEM. Statistical significance (p<0.05) was determined using a Mann-Whitney test. The relative luminescence flux for mice treated with OT-1096 was significant compared to vehicle at day 15. Primary Tumor Growth of TM00098 Patient Derived Xenografts-Triple Negative Breast Cancer in Immunocompetent Humanized NSG Mice (Hu-CD34-NSG) Treated with OT-1096 or Vehicle Control. Female NSG mice were implanted with human CD34+ hematopoietic stem cells from multiple donors and the level of human CD45+ cells were measured in the peripheral blood 12 weeks post engraftment. Mice with >25% human CD45+ cells in the peripheral blood were determined to have a humanized immune system (Hu-CD34-NSG™) mice and were enrolled into the study. The Hu-CD34-NSG mice were implanted with TM00098 patient-derived xenografts (PDX) subcutaneously on the right flank. The TM00098 PDX cancer cells originate from a primary tumor of a patient suffering from a grade 3 TNBC invasive ductal carcinoma. When the tumors reached a volume between 60-120 mm^3 mice were treated with either 10 mg/kg OT-1096 three times a week intravenously (donor 5243 n=5, donor 5252 n=7) or with a vehicle three times a week intravenously (donor 5243 n=3, donor 5252 n=2). In case of tail vein swelling when the test substance or vehicle could not be administered intravenously, Intraperitoneal injection was applied. Tumor volume was measured using a digital caliper two times a week for the duration of the study. Animals that reached a body condition score of ≤2, a body weight loss of ≥20% or a tumor volume >2000 mm^3 were euthanized before study terminus. Animals with ulcerated tumors were also euthanized before study terminus. […]

[2] = system: MDA-MB-231 (a breast cancer cell line); assay: MTT cell viability assay, MDA-MB-231; assay type: cell-based, human
Procedure: as §1, §2

recombinant TrxR = target: T1, recombinant TrxR (Rattus norvegicus, UniProt O89049); assay: Sec-independent SecTRAP activity (Juglone assay); conditions: for Juglone Act (% @ 100% DTNB inhibition): compound at the concentration that achieves 100% inhibition of TrxR in the DTNB assay
T1 sequence (O89049 1-499): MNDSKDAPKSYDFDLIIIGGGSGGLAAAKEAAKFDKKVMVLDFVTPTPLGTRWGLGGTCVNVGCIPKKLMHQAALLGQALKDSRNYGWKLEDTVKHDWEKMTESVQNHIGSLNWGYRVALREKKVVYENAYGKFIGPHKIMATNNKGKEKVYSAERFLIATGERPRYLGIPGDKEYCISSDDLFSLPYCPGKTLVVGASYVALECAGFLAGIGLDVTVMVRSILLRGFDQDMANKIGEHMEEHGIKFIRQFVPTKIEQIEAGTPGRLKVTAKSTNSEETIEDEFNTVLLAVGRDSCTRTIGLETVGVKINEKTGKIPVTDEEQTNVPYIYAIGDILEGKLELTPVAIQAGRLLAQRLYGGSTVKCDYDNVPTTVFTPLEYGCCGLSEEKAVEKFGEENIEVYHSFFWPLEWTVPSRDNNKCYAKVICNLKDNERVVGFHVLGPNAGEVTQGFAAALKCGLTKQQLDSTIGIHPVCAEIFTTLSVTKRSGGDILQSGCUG
Procedure: SecTRAP forming capabilities of compounds with TrxR was determined using the Juglone Assay. Compounds were incubated in the presence of recombinant TrxR and 250 μM NADPH for 15 minutes at concentrations fully inhibiting enzyme activity in the DTNB assay. 100 μM juglone was then added to each well and NADPH consumption was followed at OD340 to determine sustained reductive capacity at the N-terminus of TrxR (SecTRAP Activity). Activity was determined following the consumption of NADPH over time and normalized to DMSO only (Vehicle) and TrxR lacking (blank) controls.
Aliquots were used in a DTNB assay to determine inhibition of enzyme activity. […] Incubation samples were then added to a reaction buffer containing 250 μM NADPH and 100 μM juglone, whereupon NADPH consumption was followed at OD340 to determine sustained SecTRAP activity.
Higher % values for juglone activity (juglone reduction activity) in this assay are indicative of stronger prooxidant activity.

| IC50 [1] | IC50 ([2]; Homo sapiens, MDA-MB-231, 72 h) | classification as SecTRAP forming agent (recombinant TrxR; DTNB assay inhibited, juglone activity retained) | IC50 ([2]; 72 hrs) | Juglone Act (% @ 100% DTNB inhibition) (recombinant TrxR) | SMILES | TGI (MDA-MB-231 xenografts; 25 mg/kg intraperitoneally, 25 days) | N-terminal juglone reduction activity (recombinant TrxR; Iniparib at 1 mM compared with OT-1000 at 1 μM (FIG. 1B)) | TGI (MDA-MB-231 xenografts; 25 mg/kg intravenously, 25 days) | final tumor volumes versus vehicle (waterfall plot) (MDA-MB-231 xenografts) | tumor growth inhibition rate (TGI) (MDA-MB-231 xenografts; 10 mg/kg IV, 11 times over 22 days) | % TGI (MDA-MB-231 xenografts; 10 mg/kg IV, 5 day on two day off (5/2), 25 days) | mean tumor volume compared to vehicle (MDA-MB-231 xenografts; 10 mg/kg i.v. 5/2, day 25, p<0.05) |
| --- | --- | --- | --- | --- | --- | --- | --- | --- | --- | --- | --- | --- |
| 57.6 µM | > 33 µM | SecTRAP forming compound |  |  | NC(=O)c1ccc(I)c([N+](=O)[O-])c1 [Iniparib, 4-Iodo-3-nitrobenzamide, reference compound] | 9% | retained at a similar level to that obtained for OT-1000 |  |  |  |  |  |
| 1.12 µM |  |  | 4.88 µM | 74.83% | CCS(=O)(=O)c1nc(OC)ccc1[N+](=O)[O-] [OT-1129, 2-(ethylsulfonyl)-6-methoxy-3-nitropyridine] |  |  | 25% | more frequently of lower size than vehicle-treated tumors |  |  |  |
| 1.2 µM | 3.14 µM |  |  |  | COc1ccc([N+](=O)[O-])c(S(=O)(=O)c2ccc(Cl)cc2)n1 [OT-1000, 2-((4-Chlorophenyl)sulfonyl)-6-methoxy-3-nitropyridine] |  |  |  | more frequently of lower size than vehicle-treated tumors | 37% |  |  |
| 3.22 µM |  |  |  | 86.96% | CCCCCCCCS(=O)(=O)c1nc(OC)ccc1[N+](=O)[O-] [OT-1096, 6-methoxy-3-nitro-2-(octylsulfonyl)pyridine] |  |  |  |  |  | 19% | statistically significant |

From patent publication US20210038577A1, “THIOREDOXIN REDUCTASE INHIBITORS FOR USE IN THE TREATMENT OF CANCER” (Cinda Pharma AB, priority 2018, published 2021)
